Columns and labels:
Assay in all cases: relative viability (nuclei count vs DMSO), 5 days (fraction); higher = more cells survive
Tozasertib = compound: Cc1cc(Nc2cc(N3CCN(C)CC3)nc(Sc3ccc(NC(=O)C4CC4)cc3)n2)n[nH]1 [Tozasertib]
Summary of the method: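 Following overnight incubation at 37 °C, lung cancer cell lines in 1536-well plates were pinned with five library-drug doses (not always all listed) in √10 steps on vehicle-anchored plates. The cells then spent 5 days without medium change before a combined fix, permeabilisation and Hoechst stain, 4× imaging and MetaXpress nuclear counts. Viability is the treated-to-vehicle ratio of nuclei, taken as the median across plates. Only plates with control CV below 25% and at least one doubling passed.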

Tozasertib + Phenformin = compound: Cc1cc(Nc2cc(N3CCN(C)CC3)nc(Sc3ccc(NC(=O)C4CC4)cc3)n2)n[nH]1 [Tozasertib] + N=C(N)NC(=N)NCCc1ccccc1 [Phenformin] (partner 250 µM)
Summary of the method: (§1)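 Relative viability is defined as nuclei in treated wells over nuclei in vehicle wells. Duplicate plates were run and medians reported. Lung cancer cell lines in 1536-well plates were dosed by pin tool one day after seeding, with one drug or with a fixed anchor-drug dose plus five library-drug doses (not always all listed) in √10 steps, and nuclei were counted after 5 days.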

Tozasertib + Luminespib = compound: Cc1cc(Nc2cc(N3CCN(C)CC3)nc(Sc3ccc(NC(=O)C4CC4)cc3)n2)n[nH]1 [Tozasertib] + CCNC(=O)c1noc(-c2cc(C(C)C)c(O)cc2O)c1-c1ccc(CN2CCOCC2)cc1 [Luminespib] (partner 0.01 µM)
Summary of the method: as §1

Tozasertib + Dasatinib = compound: Cc1cc(Nc2cc(N3CCN(C)CC3)nc(Sc3ccc(NC(=O)C4CC4)cc3)n2)n[nH]1 [Tozasertib] + Cc1nc(Nc2ncc(C(=O)Nc3c(C)cccc3Cl)s2)cc(N2CCN(CCO)CC2)n1 [Dasatinib] (partner 0.075 µM)
Summary of the method: as §1

Tozasertib + OSI-027 = compound: Cc1cc(Nc2cc(N3CCN(C)CC3)nc(Sc3ccc(NC(=O)C4CC4)cc3)n2)n[nH]1 [Tozasertib] + COc1cccc2cc(-c3nc([C@H]4CC[C@H](C(=O)O)CC4)n4ncnc(N)c34)[nH]c12 [OSI-027] (partner 0.5 µM)
Summary of the method: as §1

Tozasertib + Foretinib = compound: Cc1cc(Nc2cc(N3CCN(C)CC3)nc(Sc3ccc(NC(=O)C4CC4)cc3)n2)n[nH]1 [Tozasertib] + COc1cc2c(Oc3ccc(NC(=O)C4(C(=O)Nc5ccc(F)cc5)CC4)cc3F)ccnc2cc1OCCCN1CCOCC1 [Foretinib] (partner 0.25 µM)
Summary of the method: as §1

Tozasertib + Olaparib = compound: Cc1cc(Nc2cc(N3CCN(C)CC3)nc(Sc3ccc(NC(=O)C4CC4)cc3)n2)n[nH]1 [Tozasertib] + O=C(c1cc(Cc2n[nH]c(=O)c3ccccc23)ccc1F)N1CCN(C(=O)C2CC2)CC1 [Olaparib] (partner 8 µM)
Summary of the method: as §1

Tozasertib + Palbociclib = compound: Cc1cc(Nc2cc(N3CCN(C)CC3)nc(Sc3ccc(NC(=O)C4CC4)cc3)n2)n[nH]1 [Tozasertib] + CC(=O)c1c(C)c2cnc(Nc3ccc(N4CCNCC4)cn3)nc2n(C2CCCC2)c1=O [Palbociclib] (partner 0.5 µM)
Summary of the method: as §1

Tozasertib + Vorinostat = compound: Cc1cc(Nc2cc(N3CCN(C)CC3)nc(Sc3ccc(NC(=O)C4CC4)cc3)n2)n[nH]1 [Tozasertib] + O=C(CCCCCCC(=O)Nc1ccccc1)NO [Vorinostat] (partner 1 µM)
Summary of the method: as §1

Tozasertib + AZD7762 = compound: Cc1cc(Nc2cc(N3CCN(C)CC3)nc(Sc3ccc(NC(=O)C4CC4)cc3)n2)n[nH]1 [Tozasertib] + NC(=O)Nc1cc(-c2cccc(F)c2)sc1C(=O)N[C@H]1CCCNC1 [AZD7762] (partner 0.2 µM)
Summary of the method: as §1

Tozasertib + Decitabine = compound: Cc1cc(Nc2cc(N3CCN(C)CC3)nc(Sc3ccc(NC(=O)C4CC4)cc3)n2)n[nH]1 [Tozasertib] + Nc1ncn([C@H]2C[C@H](O)[C@@H](CO)O2)c(=O)n1 [Decitabine] (partner 2 µM)
Summary of the method: as §1

Tozasertib + Pemetrexed = compound: Cc1cc(Nc2cc(N3CCN(C)CC3)nc(Sc3ccc(NC(=O)C4CC4)cc3)n2)n[nH]1 [Tozasertib] + Nc1nc2[nH]cc(CCc3ccc(C(=O)N[C@@H](CCC(=O)O)C(=O)O)cc3)c2c(=O)[nH]1 [Pemetrexed] (partner 0.2 µM)
Summary of the method: as §1

Tozasertib + Trametinib = compound: Cc1cc(Nc2cc(N3CCN(C)CC3)nc(Sc3ccc(NC(=O)C4CC4)cc3)n2)n[nH]1 [Tozasertib] + CC(=O)Nc1cccc(-n2c(=O)n(C3CC3)c(=O)c3c(Nc4ccc(I)cc4F)n(C)c(=O)c(C)c32)c1 [Trametinib] (partner 0.02 µM)
Summary of the method: as §1

**Q.** For NCI-H1623, which relative viability (Tozasertib; 0.004 µM) is on record?
**A.** 0.859

**Q.** And the relative viability (Tozasertib; 0.01265 µM)?
**A.** 0.965

**Q.** And the relative viability (Tozasertib; 0.04 µM)?
**A.** 0.966

**Q.** And the relative viability (Tozasertib; 0.1 µM, anchor plate)?
**A.** 0.434

**Q.** And the relative viability (Tozasertib; 0.1265 µM)?
**A.** 0.929

**Q.** And the relative viability (Tozasertib + Phenformin; first compound 0.004 µM)?
**A.** 0.552

**Q.** And the relative viability (Tozasertib + Phenformin; first compound 0.01265 µM)?
**A.** 0.541

**Q.** What about the relative viability (Tozasertib + Phenformin; first compound 0.04 µM) of the same cell line?
**A.** 0.583

**Q.** And the relative viability (Tozasertib + Phenformin; first compound 0.1265 µM)?
**A.** 0.526

**Q.** What about the relative viability (Tozasertib + Luminespib; first compound 0.004 µM) of the same cell line?
**A.** 0.43

**Q.** And the relative viability (Tozasertib + Luminespib; first compound 0.04 µM)?
**A.** 0.473

**Q.** And the relative viability (Tozasertib + Luminespib; first compound 0.1265 µM)?
**A.** 0.505

**Q.** And the relative viability (Tozasertib + Dasatinib; first compound 0.004 µM)?
**A.** 0.549

**Q.** What about the relative viability (Tozasertib + Dasatinib; first compound 0.01265 µM) of the same cell line?
**A.** 0.515

**Q.** And the relative viability (Tozasertib + Dasatinib; first compound 0.04 µM)?
**A.** 0.536

**Q.** And the relative viability (Tozasertib + Dasatinib; first compound 0.1265 µM)?
**A.** 0.556

**Q.** What about the relative viability (Tozasertib + OSI-027; first compound 0.004 µM) of the same cell line?
**A.** 0.45

**Q.** And the relative viability (Tozasertib + OSI-027; first compound 0.01265 µM)?
**A.** 0.428

**Q.** And the relative viability (Tozasertib + OSI-027; first compound 0.04 µM)?
**A.** 0.487

**Q.** And the relative viability (Tozasertib + OSI-027; first compound 0.1265 µM)?
**A.** 0.453

**Q.** What about the relative viability (Tozasertib + Foretinib; first compound 0.004 µM) of the same cell line?
**A.** 0.781

**Q.** What about the relative viability (Tozasertib + Foretinib; first compound 0.01265 µM) of the same cell line?
**A.** 0.829

**Q.** What about the relative viability (Tozasertib + Foretinib; first compound 0.04 µM) of the same cell line?
**A.** 0.898

**Q.** And the relative viability (Tozasertib + Foretinib; first compound 0.1265 µM)?
**A.** 0.761

**Q.** How did the relative viability (Tozasertib; 0.01265 µM) turn out when NCI-H1648 was run?
**A.** 0.779

**Q.** What about the relative viability (Tozasertib; 0.04 µM) of the same cell line?
**A.** 0.743

**Q.** What about the relative viability (Tozasertib; 0.1 µM, anchor plate) of the same cell line?
**A.** 0.497

**Q.** What about the relative viability (Tozasertib; 0.1265 µM) of the same cell line?
**A.** 0.79

**Q.** And the relative viability (Tozasertib + Olaparib; first compound 0.004 µM)?
**A.** 1.64

**Q.** And the relative viability (Tozasertib + Olaparib; first compound 0.01265 µM)?
**A.** 0.767

**Q.** What about the relative viability (Tozasertib + Olaparib; first compound 0.04 µM) of the same cell line?
**A.** 0.844

**Q.** And the relative viability (Tozasertib + Olaparib; first compound 0.1265 µM)?
**A.** 0.531

**Q.** And the relative viability (Tozasertib + Palbociclib; first compound 0.004 µM)?
**A.** 0.279

**Q.** And the relative viability (Tozasertib + Palbociclib; first compound 0.01265 µM)?
**A.** 0.304

**Q.** What about the relative viability (Tozasertib + Palbociclib; first compound 0.04 µM) of the same cell line?
**A.** 0.276

**Q.** What about the relative viability (Tozasertib + Palbociclib; first compound 0.1265 µM) of the same cell line?
**A.** 0.255

**Q.** What about the relative viability (Tozasertib + Vorinostat; first compound 0.004 µM) of the same cell line?
**A.** 0.42

**Q.** What about the relative viability (Tozasertib + Vorinostat; first compound 0.01265 µM) of the same cell line?
**A.** 0.296

**Q.** What about the relative viability (Tozasertib + Vorinostat; first compound 0.04 µM) of the same cell line?
**A.** 0.425

**Q.** And the relative viability (Tozasertib + Vorinostat; first compound 0.1265 µM)?
**A.** 0.379

**Q.** What about the relative viability (Tozasertib + AZD7762; first compound 0.004 µM) of the same cell line?
**A.** 0.717

**Q.** What about the relative viability (Tozasertib + AZD7762; first compound 0.01265 µM) of the same cell line?
**A.** 0.619

**Q.** And the relative viability (Tozasertib + AZD7762; first compound 0.04 µM)?
**A.** 0.596

**Q.** What about the relative viability (Tozasertib + AZD7762; first compound 0.1265 µM) of the same cell line?
**A.** 0.393

**Q.** What about the relative viability (Tozasertib + Decitabine; first compound 0.004 µM) of the same cell line?
**A.** 0.461

**Q.** And the relative viability (Tozasertib + Decitabine; first compound 0.01265 µM)?
**A.** 0.461

**Q.** And the relative viability (Tozasertib + Decitabine; first compound 0.04 µM)?
**A.** 0.383

**Q.** And the relative viability (Tozasertib + Decitabine; first compound 0.1265 µM)?
**A.** 0.401

**Q.** What about the relative viability (Tozasertib + OSI-027; first compound 0.1265 µM) of the same cell line?
**A.** 0.237

**Q.** What about the relative viability (Tozasertib + Pemetrexed; first compound 0.004 µM) of the same cell line?
**A.** 0.891

**Q.** What about the relative viability (Tozasertib + Pemetrexed; first compound 0.01265 µM) of the same cell line?
**A.** 0.665

**Q.** And the relative viability (Tozasertib + Pemetrexed; first compound 0.04 µM)?
**A.** 0.773

**Q.** And the relative viability (Tozasertib + Pemetrexed; first compound 0.1265 µM)?
**A.** 0.615

**Q.** What about the relative viability (Tozasertib + Trametinib; first compound 0.004 µM) of the same cell line?
**A.** 0.488

**Q.** What about the relative viability (Tozasertib + Trametinib; first compound 0.01265 µM) of the same cell line?
**A.** 0.444

**Q.** And the relative viability (Tozasertib + Trametinib; first compound 0.04 µM)?
**A.** 0.425

**Q.** And the relative viability (Tozasertib + Trametinib; first compound 0.1265 µM)?
**A.** 0.41

Reference: the supplement of paper PMC10307832
